From patent US10675355B2, “VAR2CSA-drug conjugates” (priority 2013, dated 2020) come the findings set out here.

The experiment has as its system Karpas 299 human T cell lymphoma tumor. Briefly: Karpas 299 xenograft efficacy study. It counts as in vivo, mice. As to conditions: IV q2dx3: VAR2-Compound O 12, VAR2 12, Compound 886 0.312 mg/kg. As to the method:
Female C.B-17/IcrHsd-Prkdcscid mice (Harlan Laboratories) were implanted subcutaneously in the back with the Karpas 299 human T cell lymphoma tumor cell line. Karpas 299 was established from the peripheral blood of a person with T cell non-Hodgkin's lymphoma in 1986; now classed as CD30+ anaplastic large cell lymphoma (ALCL). The lab stocks were mycoplasma negative. […] The mean tumor volume on treatment day (day 21) was greater than 150 mm^3. Test articles were administered intravenously on Day 1, 3, and 6 (total of three injections) at the doses indicated in the study grouping table. Body weights and tumor volumes were measured every Monday, Wednesday, and Friday. Animals remained on study until their tumors reached 800 mm^3 in size or they otherwise required euthanasia due to achieving a humane endpoint.

Turning to `CN[C@H](C(=O)N[C@H](C(=O)N(C)[C@H](/C=C(\C)C(=O)NS(=O)(=O)c1ccc(N)cc1)C(C)C)C(C)(C)C)C(C)(C)c1ccccc1` [Compound 886, (S,E)-N-(4-Aminophenylsulfonyl)-2,5-dimethyl-4-((S)—N,3,3-trimethyl-2-((S)-3-methyl-2-(methylamino)-3-phenylbutanamido)butanamido)hex-2-enamide], the “tumor volume, two-way ANOVA Bonferroni posttests” value runs as follows: (VAR2 versus, Study Day 21) “ns (P > 0.05 = ns (not significant))”; (VAR2 versus, Study Day 23) “ns (P > 0.05 = ns (not significant))”; (VAR2 versus, Study Day 26) “ns (P > 0.05 = ns (not significant))”; (VAR2 versus, Study Day 28) “* (P < 0.05 = *)”; (VAR2 versus, Study Day 30) “** (P < 0.01 = **)”; (Vehicle versus, Study Day 21) “ns (P > 0.05 = ns (not significant))”. The “tumor volume, two-way ANOVA Bonferroni posttests” value runs as follows: (Vehicle versus, Study Day 23) “ns (P > 0.05 = ns (not significant))”; (Vehicle versus, Study Day 26) “* (P < 0.05 = *)”; (Vehicle versus, Study Day 28) “*** (P < 0.001 = ***)”; (Vehicle versus, Study Day 30) “*** (P < 0.001 = ***)”.
